Data taken from US4251546A, “Process for killing internal helminths using certain 1,1-bis-(2-substituted-3-nitrophenyl)alkane or alkylene derivatives” (ICI Australia Limited, priority 1977, dated 1981).

Tested on: sheep liver fluke (Fasciola hepatica)
Experiment: Fluke egg count in faeces and adult fluke count in liver of infected sheep after a single s/c dose (Table 3)
Assay type: in vivo
Conditions: for POST MORTEM RESULT No. of adult fluke: liver
Protocol: Compositions suitable for use as experimental injectable solutions were prepared by formulating the compounds as solutions of their salts either in water or in a mixture of water and ethylene glycol or water and polyethylene glycol (PEG200).
Compositions prepared by the method of Example 10 were used as a single dose to test sheep infected with sheep liver fluke (Fasciola hepatica). The number of liver fluke eggs in the faeces was measured at the time of treatment and at selected intervals up to 30 days after treatment. The sheep were killed and the number of adult fluke in the liver counted. The amount and structure of the active ingredient in each composition and the results of treatment of a sheep with that composition are given in the Table 3 below. The compositions were administered by sub-cutaneous injection (s/c).

CC(c1cc(Cl)cc([N+](=O)[O-])c1O)c1cc(Br)cc([N+](=O)[O-])c1O (centres unmarked) [Compound 8, 1-(5-Bromo-2-hydroxy-3-nitrophenyl)-1-(5-chloro-2-hydroxy-3-nitrophenyl)ethane]
FAECAL EGG COUNT, day 7 (single dose 4.0 mg/kg): 110 Eggs/g faeces | FAECAL EGG COUNT, day 14 (single dose 4.0 mg/kg): 80 Eggs/g faeces | FAECAL EGG COUNT, day 7 (single dose 6.0 mg/kg): 20 Eggs/g faeces | FAECAL EGG COUNT, day 14 (single dose 6.0 mg/kg): 10 Eggs/g faeces | POST MORTEM RESULT No. of adult fluke (single dose 6.0 mg/kg): 0 | FAECAL EGG COUNT, day 7 (single dose 8.0 mg/kg): 0 Eggs/g faeces | FAECAL EGG COUNT, day 14 (single dose 8.0 mg/kg): 0 Eggs/g faeces | POST MORTEM RESULT No. of adult fluke (single dose 8.0 mg/kg): 0 | FAECAL EGG COUNT, day 7 (single dose 12.5 mg/kg): 0 Eggs/g faeces | FAECAL EGG COUNT, day 14 (single dose 12.5 mg/kg): 0 Eggs/g faeces | POST MORTEM RESULT No. of adult fluke (single dose 12.5 mg/kg): 0

CC(C)SC(c1cc(Cl)cc([N+](=O)[O-])c1O)c1cc(Cl)cc([N+](=O)[O-])c1O [Compound 30]
FAECAL EGG COUNT, day 7 (single dose 12.0 mg/kg): 10 Eggs/g faeces | FAECAL EGG COUNT, day 14 (single dose 12.0 mg/kg): 0 Eggs/g faeces | POST MORTEM RESULT No. of adult fluke (single dose 12.0 mg/kg): 1

CCOC(c1cc(Cl)cc([N+](=O)[O-])c1O)c1cc(Cl)cc([N+](=O)[O-])c1O [Compound 26]
FAECAL EGG COUNT, day 7 (single dose 6.0 mg/kg): 130 Eggs/g faeces | FAECAL EGG COUNT, day 14 (single dose 6.0 mg/kg): 10 Eggs/g faeces | POST MORTEM RESULT No. of adult fluke (single dose 6.0 mg/kg): 0

CCC(C)SC(c1cc(Cl)cc([N+](=O)[O-])c1O)c1cc(Cl)cc([N+](=O)[O-])c1O (centres unmarked) [Compound 47]
FAECAL EGG COUNT, day 7 (single dose 12.0 mg/kg): 10 Eggs/g faeces | FAECAL EGG COUNT, day 14 (single dose 12.0 mg/kg): 30 Eggs/g faeces

O=[N+]([O-])c1cc(Cl)cc(Cc2cc(Br)cc([N+](=O)[O-])c2O)c1O [Compound 3]
FAECAL EGG COUNT, day 7 (single dose 12.5 mg/kg): 0 Eggs/g faeces | FAECAL EGG COUNT, day 14 (single dose 12.5 mg/kg): 0 Eggs/g faeces | POST MORTEM RESULT No. of adult fluke (single dose 12.5 mg/kg): 1

CC(c1cc(Br)cc([N+](=O)[O-])c1O)c1cc(I)cc([N+](=O)[O-])c1O (centres unmarked) [Compound 10]
FAECAL EGG COUNT, day 7 (single dose 12.5 mg/kg): 10 Eggs/g faeces | FAECAL EGG COUNT, day 14 (single dose 12.5 mg/kg): 90 Eggs/g faeces

O=[N+]([O-])c1cc(Cl)cc(C(OCc2ccc(F)cc2)c2cc(Cl)cc([N+](=O)[O-])c2O)c1O [Compound 40]
FAECAL EGG COUNT, day 7 (single dose 2.0 mg/kg): 0 Eggs/g faeces | FAECAL EGG COUNT, day 14 (single dose 2.0 mg/kg): 130 Eggs/g faeces | FAECAL EGG COUNT, day 7 (single dose 6.0 mg/kg): 0 Eggs/g faeces | FAECAL EGG COUNT, day 14 (single dose 6.0 mg/kg): 0 Eggs/g faeces | POST MORTEM RESULT No. of adult fluke (single dose 6.0 mg/kg): 0

O=[N+]([O-])c1cc(Cl)cc(C(OCc2cccc(F)c2)c2cc(Cl)cc([N+](=O)[O-])c2O)c1O [Compound 37]
FAECAL EGG COUNT, day 7 (single dose 6.0 mg/kg): 0 Eggs/g faeces | FAECAL EGG COUNT, day 14 (single dose 6.0 mg/kg): 0 Eggs/g faeces | POST MORTEM RESULT No. of adult fluke (single dose 6.0 mg/kg): 2

O=[N+]([O-])c1cc(Cl)cc(C(Sc2ccc(Cl)cc2)c2cc(Cl)cc([N+](=O)[O-])c2O)c1O [Compound 51]
FAECAL EGG COUNT, day 7 (single dose 12.0 mg/kg): 10 Eggs/g faeces | FAECAL EGG COUNT, day 14 (single dose 12.0 mg/kg): 0 Eggs/g faeces | POST MORTEM RESULT No. of adult fluke (single dose 12.0 mg/kg): 0

O=[N+]([O-])c1cc(Cl)cc(C(c2cc(Cl)cc([N+](=O)[O-])c2O)C(F)(F)C(F)(F)C(F)(F)F)c1O [Compound 55]
FAECAL EGG COUNT, day 7 (single dose 2.0 mg/kg): 20 Eggs/g faeces | FAECAL EGG COUNT, day 14 (single dose 2.0 mg/kg): 0 Eggs/g faeces | POST MORTEM RESULT No. of adult fluke (single dose 2.0 mg/kg): 1 | FAECAL EGG COUNT, day 7 (single dose 6.0 mg/kg): 50 Eggs/g faeces | FAECAL EGG COUNT, day 14 (single dose 6.0 mg/kg): 20 Eggs/g faeces | POST MORTEM RESULT No. of adult fluke (single dose 6.0 mg/kg): 0

CC(c1cc(Br)cc([N+](=O)[O-])c1O)c1cc(Br)cc([N+](=O)[O-])c1O [Compound 9]
FAECAL EGG COUNT, day 7 (single dose 12.5 mg/kg): 0 Eggs/g faeces | FAECAL EGG COUNT, day 14 (single dose 12.5 mg/kg): 0 Eggs/g faeces | POST MORTEM RESULT No. of adult fluke (single dose 12.5 mg/kg): 0

O=[N+]([O-])c1cc(Cl)cc(C(c2cc(Cl)cc([N+](=O)[O-])c2O)C(Cl)(Cl)Cl)c1O [Compound 11]
FAECAL EGG COUNT, day 7 (single dose 5.0 mg/kg): 50 Eggs/g faeces | FAECAL EGG COUNT, day 14 (single dose 5.0 mg/kg): 0 Eggs/g faeces | POST MORTEM RESULT No. of adult fluke (single dose 5.0 mg/kg): 0

CC(C)COC(c1cc(Cl)cc([N+](=O)[O-])c1O)c1cc(Cl)cc([N+](=O)[O-])c1O [Compound 24, bis(5-chloro-2-hydroxy-3-nitrophenyl)methyl isobutyl ether]
FAECAL EGG COUNT, day 7 (single dose 6.0 mg/kg): 20 Eggs/g faeces | FAECAL EGG COUNT, day 14 (single dose 6.0 mg/kg): 10 Eggs/g faeces | POST MORTEM RESULT No. of adult fluke (single dose 6.0 mg/kg): 0

O=[N+]([O-])c1cc(Cl)cc(C(Sc2ccccc2)c2cc(Cl)cc([N+](=O)[O-])c2O)c1O [Compound 50]
FAECAL EGG COUNT, day 7 (single dose 12.0 mg/kg): 100 Eggs/g faeces | FAECAL EGG COUNT, day 14 (single dose 12.0 mg/kg): 0 Eggs/g faeces | POST MORTEM RESULT No. of adult fluke (single dose 12.0 mg/kg): 0
